In patent publication US10160867B2, “Benzoxaborole-containing coating resistant to cellulose-supportable fungus” (THE PENN STATE RESEARCH FOUNDATION, priority 2015, dated 2018):
Values after ≈ are worked out from the molar mass of the structure shown.

Key:
[1] = tested on: Aspergillus flavus; assay: 3 day MIC, broth microdilution in 25% PDB; type: cell-based; conditions: 72 h
Procedure, shortened: (§1)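 Following a modified CLSI M38-A2 method, the work used spore inocula at 0.4-1×10^5 CFU/mL final in sealed plates kept at about 25° C, with readings at 48 and 72 hours.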

[2] = tested on: Aspergillus niger; assay: 3 day MIC, broth microdilution in 25% PDB; type: cell-based; conditions: 72 h
Procedure, shortened: as §1

[3] = tested on: Aureobasidium pullulans; assay: 3 day MIC, broth microdilution in 25% PDB; type: cell-based; conditions: 72 h
Procedure, shortened: as §1

[4] = tested on: Fusarium oxysparum ST-33; assay: 3 day MIC, broth microdilution in 25% PDB; type: cell-based; conditions: ST33, 72 h
Procedure, shortened: as §1

[5] = tested on: Mucor spp.; assay: 3 day MIC, broth microdilution in 25% PDB; type: cell-based; conditions: 72 h
Procedure, shortened: as §1

[6] = tested on: Rhizopus spp.; assay: 3 day MIC, broth microdilution in 25% PDB; type: cell-based; conditions: 72 h
Procedure, shortened: as §1

[7] = tested on: Alternaria alternata; assay: Fungus resistance test for painted surfaces containing antifungal additives (defacement rating); type: cell-based; design: key: 10 = no defacement, 0 = completely defaced
Method: (§2) A Defacement Rating is measured by estimating the percentage of surface defacement with 10 being no defacement and 0 begin completely defaced.
(§3) This test was used to evaluate the resistance of paint films containing antifungal additives to surface fungal growth.
(§4) Olympic® Home interior flat latex paint (PPG Industries, Pittsburgh, Pa.) and Valspar® QuikHide White flat interior paint (Valspar Corporation, Minneapolis, Minn.) were used for all studies unless otherwise noted. Stock solutions of the antifungal additives of interest were prepared in reagent grade dimethyl sulfoxide (DMSO; Alfa Aesar, Ward Hill, Mass.). Additives were spiked (by adding appropriate amounts of the antifungal stock solutions) into the liquid paint at specified concentrations. Samples of the additive-spiked paint were vigorously mixed with a vortex mixer for at least one minute to ensure uniform dispersion of the additive in the paint. […] Studies that use other brands of paint followed the same protocol as described for those using the Olympic® Home interior flat latex paint and Valspar® QuikHide paint.
(§5) Test surfaces were prepared in triplicate. In most cases, the tested conditions were repeated on a different date, again in triplicate. […] Two coats of paint were applied with a polyester brush to completely cover both faces of the filter paper disc, allowing at least four hours drying time between coats.
(§6) Nutrient-Salts Agar (NSA) medium was prepared according to ASTM method G21-13 in 100×15 mm sterile polystyrene petri dishes (VWR® Radnor, Pa.) with a solidified agar layer of about 3 to about 6 mm (⅛ to ¼ in.) in depth. The agar was allowed to solidify for at least 24 hours before being used. The painted test filter paper discs were placed in the center of the agar plates in a biosafety hood while wearing clean nitrile gloves.
(§7) The paint coatings were evaluated against three representative cellulose-supportable fungi: Stachybotrys chartarum, Penicillium chrysogenum, and Alternaria alternata. […] Fungal isolates of Alternaria alternata and Penicillium chrysogenum were obtained from the Plant Pathology and Environmental Microbiology Department at Penn State University.
(§8) A spore suspension of each of these fungi was prepared by pouring a 20-mL portion of autoclaved deionized water containing 0.01% Tween® 20 onto a subculture of each fungal species. Spores were counted with the use of a hemocytometer (Hausser Scientific, Horsham, Pa.) under a compound light microscope. Spore suspensions of Stachybotrys chartarum and Penicillium chrysogenum were diluted to 1×10^6 spores/mL with autoclaved deionized water. Spore suspensions of Alternaria alternata were used “as is” in the range of 200,000 to 400,000 spores/mL.
(§9) Painted test surfaces were inoculated with a spray bottle or with a sterile cotton-tipped applicator. To inoculate the sample with a spray bottle, the spore suspension was sprayed twice on the painted test discs with an autoclaved spray bottle that delivered approximately 0.14 g of fluid per spray. To inoculate the sample with a cotton-tipped applicator, an autoclaved cotton-tipped applicator was submerged in approximately 400 μL of the spore inoculum solution (spore concentrations described above) and applied evenly over the surface of the painted test surface twice. A fresh autoclaved cotton-tipped applicator was used for the application of each painted disc. All the paint studies with Alternaria alternata and Stachybotrys chartarum were inoculated using the spray bottle method. For studies with Penicillium chrysogenum using Olympic® Home paint, the spray bottle inoculation method was used. For studies with Penicillium chrysogenum using Valspar® QuikHide paint, the cotton-tipped applicator inoculation method was used.
(§10) After inoculation, the NSA agar plates were sealed with Parafilm®.

[8] = tested on: Penicillium chrysogenum; assay: as above; type: cell-based; design: key: 10 = no defacement, 0 = completely defaced
Method: as §2, §3, §4, §5, §6, §7, §8, §9, §10

[9] = tested on: Stachybotrys chartarum; assay: as above; type: cell-based; design: key: 10 = no defacement, 0 = completely defaced
Method: as §2, §3, §4, §5, §6, §7, §8, §9, §10

[10] = commercially available fungicidal agents; cited from earlier work
[11] = tested on: Cladosporium cladosporioides; assay: 3 day MIC, broth microdilution in 25% PDB; type: cell-based; conditions: 72 h
Procedure, shortened: as §1

[12] = +100 μg/mL in Olympic Home paint, 7 days
[13] = +100 μg/mL in Olympic Home paint, 14 days
[14] = +100 μg/mL in Olympic Home paint, 21 days
[15] = +200 μg/mL in Olympic Home paint, 7 days
[16] = +200 μg/mL in Olympic Home paint, 14 days
[17] = +200 μg/mL in Olympic Home paint, 21 days
[18] = +200 μg/mL in Valspar QuikHide paint, 7 days
[19] = +200 μg/mL in Valspar QuikHide paint, 14 days
[20] = +200 μg/mL in Valspar QuikHide paint, 21 days
[21] = +10 μg/mL in Olympic Home paint, 7 days
[22] = +10 μg/mL in Olympic Home paint, 14 days
[23] = +10 μg/mL in Olympic Home paint, 21 days

SMILES	MIC [1] [µg/mL]	MIC [2] [µg/mL]	MIC [5] [µg/mL]	MIC [6] [µg/mL]	Average defacement rating ± standard deviation [7, 12]	Average defacement rating ± standard deviation [7, 13]	Average defacement rating ± standard deviation [7, 14]	Average defacement rating ± standard deviation [8, 12]	Average defacement rating ± standard deviation [8, 13]	Average defacement rating ± standard deviation [8, 14]	Average defacement rating ± standard deviation [9, 12]	Average defacement rating ± standard deviation [9, 13]	Average defacement rating ± standard deviation [9, 14]	Solubility in water [10]	Average defacement rating ± standard deviation [8, 15]	Average defacement rating ± standard deviation [8, 16]	Average defacement rating ± standard deviation [8, 17]	Average defacement rating ± standard deviation [8, 18]	Average defacement rating ± standard deviation [8, 19]	Average defacement rating ± standard deviation [8, 20]	other results
O=C1C2CC=CCC2C(=O)N1SC(Cl)(Cl)Cl (stereo not shown) [Captan]	25 (≈ 83.2 µM)	16 (≈ 53.2 µM)	3.1 (≈ 10.3 µM)	12.5 (≈ 41.6 µM)	0.1 ± 0.3	0.0 ± 0.0	0.0 ± 0.0	3.2 ± 1.8	0.0 ± 0.0	0.0 ± 0.0	2.9 ± 3.3	0.0 ± 0.0	0.0 ± 0.0	3.3 mg/L (≈ 11 µM)	–	–	–	–	–	–	MIC [3]: 0.8 µg/mL (≈ 2.66 µM); MIC [4]: 2 µg/mL (≈ 6.65 µM); Average defacement rating ± standard deviation ([7]; +100 μg/mL in Olympic Home paint, 7 days, listed as captan): 0.1±0.3
N#Cc1c(Cl)c(Cl)c(Cl)c(C#N)c1Cl [Chlorothalonil, chlorothalonil]	0.2 (≈ 0.752 µM)	0.4 (≈ 1.5 µM)	0.8 (≈ 3.01 µM)	0.8 (≈ 3.01 µM)	1.9 ± 2.4	0.5 ± 1.8	0.5 ± 1.8	4.9 ± 1.9	0.0 ± 0.0	0.0 ± 0.0	5.8 ± 3.0	0.8 ± 1.8	0.6 ± 1.7	<100 mg/L	8.3 ± 1.4	0.8 ± 2.0	0.0 ± 0.0	10.0 ± 0.0	5.3 ± 0.6	0.3 ± 0.6	–
OB1OCc2cc(Cl)ccc21 [Compound B8, 5-chloro-1,3-dihydro-2,1-benzoxaborol-1-ol]	1 (≈ 5.94 µM)	0.25 (≈ 1.48 µM)	0.5 (≈ 2.97 µM)	4 (≈ 23.8 µM)	9.9±0.4	8.1 ± 1.5	7.8±1.5	7.3 ± 1.3	0.0 ± 0.0	0.0 ± 0.0	9.9±0.4	8.1 ± 1.9	–	–	10.0±0.0	9.5 ± 1.2	8.7 ± 2.3	–	–	–	MIC [3]: 0.125 µg/mL (≈ 0.742 µM); MIC [11]: 0.1 µg/mL (≈ 0.594 µM); MIC [4]: 0.25 µg/mL (≈ 1.48 µM); Average defacement rating ± standard deviation [7, 21]: 5.0 ± 1.0; Average defacement rating ± standard deviation [7, 22]: 4.7 ± 1.2; Average defacement rating ± standard deviation [7, 23]: 4.7 ± 1.2; Average defacement rating ± standard deviation [9, 21]: 5.7 ± 4.9; Average defacement rating ± standard deviation [9, 22]: 0.0 ± 0.0; Average defacement rating ± standard deviation [9, 23]: 0.0 ± 0.0
OB1OCc2cc(F)ccc21 [Compound B9, 5-Fluoro-1,3-dihydro-2,1-benzoxaborol-1-ol]	1 (≈ 6.58 µM)	0.25 (≈ 1.65 µM)	0.25 (≈ 1.65 µM)	0.5 (≈ 3.29 µM)	7.4±1.8	3.8 ± 0.9	3.8±0.9	3.7 ± 1.5	0.0 ± 0.0	0.0 ± 0.0	9.9±0.3	4.4 ± 2.9	2.0 ± 2.8	–	10.0 ± 0.0	9.8 ± 0.4	6.7 ± 3.9	10.0 ± 0.0	10.0 ± 0.0	9.7 ± 0.6	MIC [3]: 0.125 µg/mL (≈ 0.823 µM); MIC [11]: 0.1 µg/mL (≈ 0.658 µM); MIC [4]: 0.25 µg/mL (≈ 1.65 µM)
CCCCNC(=O)OCC#CI [IPBC, 3-Iodo-2-propynylbutylcarbamate]	–	–	–	–	9.9 ± 0.4	8.4 ± 2.7	7.5 ± 3.4	10.0 ± 0.0	9.4 ± 0.4	9.4 ± 0.4	9.9±0.3	8.1 ± 1.5	6.1±2.7	156 mg/L (≈ 555 µM)	10.0 ± 0.0	10.0 ± 0.0	9.3 ± 0.8	10.0 ± 0.0	10.0 ± 0.0	10.0 ± 0.0	–
CCCCCCCCn1sccc1=O [OIT, 2-Octyl-4-isothiazolin-3-one]	–	–	–	–	8.1±0.3	6.9 ± 1.0	4.9±0.7	10.0 ± 0.0	10.0 ± 0.0	9.3 ± 1.5	9.9 ± 0.3	8.2 ± 2.5	6.9 ± 2.4	–	10.0 ± 0.0	10.0 ± 0.0	9.8 ± 0.4	10.0 ± 0.0	10.0 ± 0.0	10.0 ± 0.0	–
Oc1cc(Cl)ccc1Oc1ccc(Cl)cc1Cl [Triclosan, triclosan]	–	–	–	–	0.1 ± 0.4	0.0 ± 0.0	0.0 ± 0.0	1.8 ± 1.4	0.0 ± 0.0	0.0 ± 0.0	0.8 ± 1.4	0.0 ± 0.0	0.0 ± 0.0	12,000 mg/L	9.3 ± 0.5	0.2 ± 0.4	0.0 ± 0.0	4.0 ± 3.6	0.0 ± 0.0	0.0 ± 0.0	–
